# pIC50: −log10 of the molar value.
# Target: T1, human IDO1 (Homo sapiens, UniProt P14902)
# T1 construct: expressed in transfected cells
# Assay: HEK293 human IDO1 cell-based IDO inhibition assay
# Conditions: HEK293 cells stably expressing human IDO1; 20 hours incubation; absorbance at 490 nm (Ehrlich reagent); 500 nM reference standard = 100% inhibition; read-out: HEK Human IDO-1 Potency
# Summary of the method: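 HEK293 cells stably expressing human IDO1, 10,000/well in RPMI with 10% FBS, treated with compound 20 h at 37 °C. Stopped with 0.2% final TCA, 50 °C for 30 min; supernatant mixed with 0.2% Ehrlich reagent in acetic acid, 30 min RT, absorbance read at 490 nm.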
# T1 sequence (P14902 whole entry): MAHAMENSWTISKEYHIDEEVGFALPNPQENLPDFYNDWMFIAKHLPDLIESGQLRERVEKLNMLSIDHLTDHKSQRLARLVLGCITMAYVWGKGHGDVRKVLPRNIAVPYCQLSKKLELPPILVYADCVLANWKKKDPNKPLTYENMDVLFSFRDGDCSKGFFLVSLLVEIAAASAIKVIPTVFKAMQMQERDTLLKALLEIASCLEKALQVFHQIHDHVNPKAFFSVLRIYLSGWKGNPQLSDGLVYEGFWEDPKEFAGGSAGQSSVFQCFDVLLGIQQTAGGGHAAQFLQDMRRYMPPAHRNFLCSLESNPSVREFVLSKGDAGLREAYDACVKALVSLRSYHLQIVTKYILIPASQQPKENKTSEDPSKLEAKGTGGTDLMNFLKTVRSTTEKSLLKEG
row,Compound,pIC50
1,N-(4-chlorophenyl)-2-(cis-4-(6-fluoroquinolin-4-yl)-1-hydroxycyclohexyl) propanamide [Example 231],> 6.60
2,N-(4-chlorophenyl)-2-(cis-4-(6-fluoroquinolin-4-yl)-1-hydroxycyclohexyl) propanamide [Example 232],> 7.30
3,N-(4-chlorophenyl)-2-(trans-4-(6-fluoroquinolin-4-yl)-1-hydroxycyclohexyl) propanamide [Example 229],> 7.30
4,N-(4-chlorophenyl)-2-(trans-4-(6-fluoroquinolin-4-yl)-1-hydroxycyclohexyl) propanamide [Example 230],> 6.60

# Same assay, conditions: read-out: HEK Human IDO-1 Potency
row,Compound,pIC50
1,"O=C(CC1CCN(c2ccnc3ccc(F)cc23)CC1)Nc1ccc(F)cc1 [Example 115, N-(4-Fluorophenyl)-2-(1-(6-fluoroquinolin-4-yl)piperidin-4-yl)acetamide]",< 6.60
2,O=C(CC1CCN(c2ccnc3ccc(F)cc23)CC1)Nc1ccc(Cl)cc1 [Example 116],< 6.60
3,O=C(CC1CCN(c2ccnc3ccc(F)cc23)CC1)Nc1ccc(Br)cc1 [Example 117],< 6.60
4,Cc1ccc(NC(=O)CC2CCN(c3ccnc4ccc(F)cc34)CC2)c(F)c1 [Example 118],< 6.60
5,Cc1cc(Cl)ccc1NC(=O)CC1CCN(c2ccnc3ccc(F)cc23)CC1 [Example 119],< 6.60
6,"CC1(CC(=O)Nc2ccc(F)cc2)CCN(c2ccnc3ccc(F)cc23)CC1 [Example 120, N-(4-Fluorophenyl)-2-(1-(6-fluoroquinolin-4-yl)-4-methylpiperidin-4-yl)acetamide]",< 6.60
7,Cc1ccc(NC(=O)CC2(C)CCN(c3ccnc4ccc(F)cc34)CC2)cc1 [Example 121],< 6.60
8,CC1(CC(=O)Nc2cncnc2)CCN(c2ccnc3ccc(F)cc23)CC1 [Example 122],< 6.60
9,CC1(CC(=O)Nc2ccc(Cl)cc2)CCN(c2ccnc3ccc(F)cc23)CC1 [Example 123],> 7.30
10,COc1ncc(NC(=O)CC2(C)CCN(c3ccnc4ccc(F)cc34)CC2)cn1 [Example 124],< 6.60
11,CCOc1ccc(NC(=O)CC2(C)CCN(c3ccnc4ccc(F)cc34)CC2)cc1 [Example 125],> 6.60
12,"CC(C(=O)O)c1ccc(C[C@@H](C(=O)Nc2ccc(C#N)cc2)[C@H]2CC[C@@H](c3ccnc4ccc(F)cc43)CC2)cc1 (stereo partly drawn) [Example 140, 2-(4-((R)-3-((4-Cyanophenyl)amino)-2-((cis)-4-(6-fluoroquinolin-4-yl)cyclohexyl)-3-oxopropyl)phenyl)propanoic Acid]",> 7.30
13,"C[C@@H](C(=O)Nc1ccc(Cl)cc1O)[C@H]1CC[C@@H](c2ccnc3ccc(F)cc32)CC1 [Example 238, (R)-N-(4-chloro-2-hydroxyphenyl)-2-(cis-4-(6-fluoroquinolin-4-yl)cyclohexyl)propanamide]",> 7.30
14,"C[C@@H](C(=O)Nc1ccc(Cl)c(O)c1)[C@H]1CC[C@@H](c2ccnc3ccc(F)cc32)CC1 [Example 239, (R)-N-(4-chloro-3-hydroxyphenyl)-2-(cis-4-(6-fluoroquinolin-4-yl)cyclohexyl)propanamide]",> 7.30
15,"C[C@@H](C(=O)NC1CC2CCC1C2)[C@H]1CC[C@@H](c2ccnc3ccc(F)cc32)CC1 (stereo partly drawn) [Example 240, (2R)-N-((2S)-bicyclo[2.2.1]heptan-2-yl)-2-(cis-4-(6-fluoroquinolin-4-yl)cyclohexyl)propanamide]",> 6.60
16,"C=CC[C@@H](C(=O)Nc1ccc(Cl)cc1N)[C@H]1CC[C@@H](c2ccnc3ccc(F)cc32)CC1 [Example 241, (R)-N-(2-amino-4-chlorophenyl)-2-(cis-4-(6-fluoroquinolin-4-yl)cyclohexyl)pent-4-enamide]",> 7.30
17,"CC1(CC(=O)NC2(C)CCCCC2)CCN(c2ccnc3ccc(F)cc23)CC1 [Example 242, 2-(1-(6-Fluoroquinolin-4-yl)-4-methylpiperidin-4-yl)-N-(1-methylcyclohexyl)acetamide]",> 7.30
18,CCC(C(=O)Nc1ccc(C)cc1)N1CCC(Oc2ccnc3ccc(F)cc23)CC1 (stereo not drawn) [compound 97],> 6.60
19,CCC(C(=O)Nc1ccc(Cl)cc1)N1CCC(Oc2ccnc3ccc(F)cc23)CC1 (stereo not drawn) [compound 98],> 6.60
20,CC(C(=O)Nc1ccc(F)cc1)N1CCC(Oc2ccnc3ccc(F)cc23)CC1 (stereo not drawn) [compound 99],> 7.30
21,CCOc1ccc(NC(=O)C(C)N2CCC(Oc3ccnc4ccc(F)cc34)CC2)cc1 (stereo not drawn) [compound 100],> 7.30
22,Cc1ccc(NC(=O)C(C)N2CCC(Oc3ccnc4ccc(F)cc34)CC2)cc1 (stereo not drawn) [compound 101],> 7.30
23,CCOc1ccc(NC(=O)C(C)N2CCC(Oc3ccnc4ccc(F)cc34)CC2)cc1 (stereo not drawn) [compound 107],> 7.30
24,CCOc1ccc(NC(=O)C(C)N2CCC(Oc3ccnc4ccc(F)cc34)CC2)cc1 (stereo not drawn) [compound 108],> 6.60
25,CCC(C(=O)Nc1ccc(Cl)cc1)N1CCC(Oc2ccnc3ccc(F)cc23)CC1 (stereo not drawn) [compound 111],> 6.60
26,CCC(C(=O)Nc1ccc(Cl)cc1)N1CCC(Oc2ccnc3ccc(F)cc23)CC1 (stereo not drawn) [compound 112],< 6.60

# Source: patent US20180282281A1, “IMMUNOREGULATORY AGENTS” (FLEXUS BIOSCIENCES, INC., priority 2014, published 2018)
